From US10675360B2 (MADRIGAL PHARMACEUTICALS, INC., priority 2014, dated 2020) come the findings set out here.

This data set can be described thus: Stability in mouse plasma. Type of data set: in vitro ADME. The conditions noted are these: 1 h.

For `CCNC(=O)c1nnc(-c2cc(C(C)C)c(O)cc2O)n1-c1ccc(Oc2ccc(OC(=O)N(C)CCOC(=O)Nc3cccc4c3CN(C3CCC(=O)NC3=O)C4=O)cc2)cc1` (stereo not shown), the “% Remaining” value (mouse, plasma, 10 μM) is 51.2%. In the case of `CCc1c2c(nc3ccc(OC(=O)N(C)CCn4ccc5cc(-n6c(O)nnc6-c6cc(C(C)C)c(O)cc6O)ccc54)cc13)-c1cc3c(c(=O)n1C2)COC(=O)C3(O)CC` (stereo not shown) [SDC-TRAP-0022, 4,11-diethyl-4-hydroxy-3,14-dioxo-3,4,12,14-tetrahydro-1H-pyrano[3′,4′:6,7]indolizino[1,2-b]quinolin-9-yl (2-(5-(3-(2,4-dihydroxy-5-isopropylphenyl)-5-hydroxy-4H-1,2,4-triazol-4-yl)-1H-indol-1-yl)ethyl)(methyl)carbamate], the “% Remaining” value (mouse plasma, 37° C.) is reported as 21%. On the same count and under the same terms, the figure for `CCc1c2c(nc3ccc(O)cc13)-c1cc3c(c(=O)n1C2)COC(=O)C3(CC)OC(=O)N(C)CCOCCn1ccc2cc(-n3c(O)nnc3-c3cc(C(C)C)c(O)cc3O)ccc21` (stereo not shown) [SDC-TRAP-0037, 4,11-diethyl-9-hydroxy-3,14-dioxo-3,4,12,14-tetrahydro-1H-pyrano[3′,4′:6,7]indolizino[1,2-b]quinolin-4-yl (2-(2-(5-(3-(2,4-dihydroxy-5-isopropylphenyl)-5-hydroxy-4H-1,2,4-triazol-4-yl)-1H-indol-1-yl)ethoxy)ethyl)(methyl)carbamate] is 95%. In the case of `CCc1c2c(nc3ccc(O)cc13)-c1cc3c(c(=O)n1C2)COC(=O)C3(CC)OC(=O)CCC(=O)N1CCC(Cc2ccc(-n3c(O)nnc3-c3cc(C(C)C)c(O)cc3O)cc2)CC1` (stereo not shown) [SDC-TRAP-0042, 4,11-diethyl-9-hydroxy-3,14-dioxo-3,4,12,14-tetrahydro-1H-pyrano[3′,4′:6,7]indolizino[1,2-b]quinolin-4-yl 4-(4-(4-(3-(2,4-dihydroxy-5-isopropylphenyl)-5-hydroxy-4H-1,2,4-triazol-4-yl)benzyl)piperidin-1-yl)-4-oxobutanoate], the “% Remaining” value (mouse plasma, 37° C.) is listed as 74%. Same read-out and setting: the same measure for `CCc1c2c(nc3ccc(OC(=O)N(C)CCCCN4CCN(Cc5ccc(-n6c(O)nnc6-c6cc(C(C)C)c(O)cc6O)cc5)CC4)cc13)-c1cc3c(c(=O)n1C2)COC(=O)C3(O)CC` (stereo not shown) [SDC-TRAP-0044, 4,11-diethyl-4-hydroxy-3,14-dioxo-3,4,12,14-tetrahydro-1H-pyrano[3′,4′:6,7]indolizino[1,2-b]quinolin-9-yl (4-(4-(4-(3-(2,4-dihydroxy-5-isopropylphenyl)-5-hydroxy-4H-1,2,4-triazol-4-yl)benzyl)piperazin-1-yl)butyl)(methyl)carbamate]: 61%; for `CCc1c2c(nc3ccc(O)cc13)-c1cc3c(c(=O)n1C2)COC(=O)C3(CC)OC(=O)N1CCN(Cc2ccc(-n3c(O)nnc3-c3cc(C(C)C)c(O)cc3O)cc2)CC1` (stereo not shown) [SDC-TRAP-0047, 4,11-diethyl-9-hydroxy-3,14-dioxo-3,4,12,14-tetrahydro-1H-pyrano[3′,4′:6,7]indolizino[1,2-b]quinolin-4-yl 4-(4-(3-(2,4-dihydroxy-5-isopropylphenyl)-5-hydroxy-4H-1,2,4-triazol-4-yl)benzyl)piperazine-1-carboxylate]: 89%. In the case of `CCc1c2c(nc3ccc(O)cc13)-c1cc3c(c(=O)n1C2)COC(=O)C3(CC)OC(=O)N(C)CCCCN1CCN(Cc2ccc(-n3c(O)nnc3-c3cc(C(C)C)c(O)cc3O)cc2)CC1` (stereo not shown) [SDC-TRAP-0055, 4,11-diethyl-9-hydroxy-3,14-dioxo-3,4,12,14-tetrahydro-1H-pyrano[3′,4′:6,7]indolizino[1,2-b]quinolin-4-yl (4-(4-(4-(3-(2,4-dihydroxy-5-isopropylphenyl)-5-hydroxy-4H-1,2,4-triazol-4-yl)benzyl)piperazin-1-yl)butyl)(methyl)carbamate], the “% Remaining” value (mouse, plasma, 10 μM) turned out to be 103%.

In the case of `CCc1c2c(nc3ccc(O)cc13)-c1cc3c(c(=O)n1C2)COC(=O)C3(CC)OC(=O)CN1CCN(c2ccc(-n3c(O)nnc3-c3cc(C(C)C)c(O)cc3O)cc2)CC1` (stereo not shown) [SDC-TRAP-0056, 4,11-diethyl-9-hydroxy-3,14-dioxo-3,4,12,14-tetrahydro-1H-pyrano[3′,4′: 6,7]indolizino[1,2-b]quinolin-4-yl 2-(4-(4-(3-(2,4-dihydroxy-5-isopropylphenyl)-5-hydroxy-4H-1,2,4-triazol-4-yl)phenyl)piperazin-1-yl)acetate], under “mouse plasma, 37° C.”, the “% Remaining” value came out at 78%. Same read-out and setting: the figure for `CCc1c2c(nc3ccc(O)cc13)-c1cc3c(c(=O)n1C2)COC(=O)[C@@]3(CC)OC(=O)N1CCC(CCn2ccc3cc(-n4c(O)nnc4-c4cc(C(C)C)c(O)cc4O)ccc32)CC1` [SDC-TRAP-0064, (S)-4,11-diethyl-9-hydroxy-3,14-dioxo-3,4,12,14-tetrahydro-1H-pyrano[3′,4′:6,7]indolizino[1,2-b]quinolin-4-yl 4-(2-(5-(3-(2,4-dihydroxy-5-isopropylphenyl)-5-hydroxy-4H-1,2,4-triazol-4-yl)-1H-indol-1-yl)ethyl)piperidine-1-carboxylate] is 91.5%.

Regarding `CCc1c2c(nc3ccc(O)cc13)-c1cc3c(c(=O)n1C2)COC(=O)C3(CC)OC(=O)CN1CCC(Cc2ccc(-n3c(O)nnc3-c3cc(C(C)C)c(O)cc3O)cc2)CC1` (stereo not shown) [SDC-TRAP-0071, 4,11-diethyl-9-hydroxy-3,14-dioxo-3,4,12,14-tetrahydro-1H-pyrano[3′,4′:6,7]indolizino[1,2-b]quinolin-4-yl 2-(4-(4-(3-(2,4-dihydroxy-5-isopropylphenyl)-5-hydroxy-4H-1,2,4-triazol-4-yl)benzyl)piperidin-1-yl)acetate], the “% Remaining” value (mouse plasma, 37° C.) is given as 102%. With `CCc1c2c(nc3ccc(O)cc13)-c1cc3c(c(=O)n1C2)COC(=O)[C@@]3(CC)OC(=O)N1CCC(CCc2ccc(-n3c(O)nnc3-c3cc(C(C)C)c(O)cc3O)cc2)CC1` [SDC-TRAP-0104, (S)-4,11-diethyl-9-hydroxy-3,14-dioxo-3,4,12,14-tetrahydro-1H-pyrano[3′,4′:6,7]indolizino[1,2-b]quinolin-4-yl 4-(4-(3-(2,4-dihydroxy-5-isopropylphenyl)-5-hydroxy-4H-1,2,4-triazol-4-yl)phenethyl)piperidine-1-carboxylate], the “% Remaining” value (mouse plasma, 37° C.) is reported as 95.5%. Regarding `COc1cc(O)c(-c2nnc(C(=O)NC(C)C)n2-c2ccc(CN3CCC(C(=O)Nc4cccc5c4CN(C4CCC(=O)NC4=O)C5=O)CC3)cc2)cc1C(C)C` (stereo not shown) [SDC-TRAP-0115, N-(2-(2,6-dioxopiperidin-3-yl)-1-oxoisoindolin-4-yl)-1-(4-(3-(2-hydroxy-5-isopropyl-4-methoxyphenyl)-5-(isopropylcarbamoyl)-4H-1,2,4-triazol-4-yl)benzyl)piperidine-4-carboxamide], the “% Remaining” value (mouse, plasma, 10 μM) is on record as 85.9%.

`CC(C)c1cc(-c2nnc(O)n2-c2ccc(CN3CCN(C(=O)COC(=O)Nc4cccc5c4CN(C4CCC(=O)NC4=O)C5=O)CC3)cc2)c(O)cc1O` (stereo not shown) [SDC-TRAP-0121, 2-(4-(4-(3-(2,4-dihydroxy-5-isopropylphenyl)-5-hydroxy-4H-1,2,4-triazol-4-yl)benzyl)piperazin-1-yl)-2-oxoethyl(2-(2,6-dioxopiperidin-3-yl)-1-oxoisoindolin-4-yl)carbamate]: for the setting “mouse, plasma, 10 μM”, the “% Remaining” value worked out at 89.1%.
